Reference: patent publication US5567692A, “9-[(substituted glycyl) amido)]-6-demethyl-6-deoxytetracyclines” (priority 1995, dated 1996)
Converted amounts (≈) assume the structure as drawn. Structures can show the parent of a compound that is named as a salt. Where two headings read alike, the source gives them in different places.

Assays:
[1] = test system: S. aureus UBMS 88-7 Tet K; assay: microbe, parasite or virus in culture; format: cell-based; settings: Staphylococcus aureus, UBMS887TETK, 18 h
[2] = test system: E. coli UBMS 89-2 Tet sens.; assay: MIC, agar dilution; format: cell-based; settings: Escherichia coli, 18 h
[3] = test system: S. aureus SMITH (MP); assay: MIC, agar dilution; format: cell-based; settings: Staphylococcus aureus, 18 h
[4] = test system: E. coli MC 4100 TNIOC Tet B; assay: microbe, parasite or virus in culture; format: cell-based; settings: Escherichia coli, 18 h
[5] = test system: E. faecalis ATCC 29212; assay: MIC, agar dilution; format: cell-based; settings: Enterococcus faecalis, ATCC29212, 18 h, E. faecalis ATCC 29212; read-out: MIC
[6] = test system: E. coli #311 (MP); assay: MIC, agar dilution; format: cell-based; settings: Escherichia coli, 18 h
[7] = test system: S. aureus UBMS 90-3; assay: MIC, agar dilution; format: cell-based; settings: Staphylococcus aureus, UBMS903, 18 h
[8] = test system: S. aureus IVES 1983; assay: MIC, agar dilution; format: cell-based; settings: Staphylococcus aureus, IVES1983, 18 h
[9] = test system: S. aureus UBMS 88-5 Tet M; assay: microbe, parasite or virus in culture; format: cell-based; settings: Staphylococcus aureus, UBMS885TETM, 18 h
[10] = test system: S. aureus UBMS 90-1 Tet M; assay: microbe, parasite or virus in culture; format: cell-based; settings: Staphylococcus aureus, UBMS901TETM, 18 h
[11] = test system: E. coli J3272 Tet C; assay: microbe, parasite or virus in culture; format: cell-based; settings: Escherichia coli, J3272TETC, 18 h
[12] = test system: E. coli UBMS 89-1 Tet M; assay: microbe, parasite or virus in culture; format: cell-based; settings: Escherichia coli, UBMS891TETM, 18 h
[13] = test system: E. coli ATCC 25922; assay: MIC, agar dilution; format: cell-based; settings: Escherichia coli, ATCC25922, 18 h
[14] = test system: S. aureus NEMC 8769; assay: MIC, agar dilution; format: cell-based; settings: Staphylococcus aureus, NEMC8769, 18 h
[15] = test system: Ps. aeruginosa ATCC 27853; assay: MIC, agar dilution; format: cell-based; settings: Pseudomonas aeruginosa, ATCC27853, 18 h
[16] = test system: E. coli UBMS 90-4 Tet M; assay: microbe, parasite or virus in culture; format: cell-based; settings: Escherichia coli, UBMS904TETM, 18 h
[17] = test system: S. aureus ROSE (MP); assay: MIC, agar dilution; format: cell-based; settings: Staphylococcus aureus, 18 h
[18] = test system: S. aureus UBMS 90-2 Tet M; assay: microbe, parasite or virus in culture; format: cell-based; settings: Staphylococcus aureus, UBMS902TETM, 18 h
[19] = test system: E. coli PRP1 Tet A; assay: microbe, parasite or virus in culture; format: cell-based; settings: Escherichia coli, PRP1TETA, 18 h
[20] = test system: E. coli UBMS 88-1 Tet B; assay: microbe, parasite or virus in culture; format: cell-based; settings: Escherichia coli, UBMS881TETB, 18 h
[21] = test system: E. coli J2175; assay: MIC, agar dilution; format: cell-based; settings: Escherichia coli, 18 h, read-out: MIC
[22] = test system: X. maltophilia NEMC 87210; assay: MIC, agar dilution; format: cell-based; settings: Stenotrophomonas maltophilia, NEMC87210, 18 h
[23] = test system: E. coli MC 4100 Tet sens.; assay: MIC, agar dilution; format: cell-based; settings: Escherichia coli, 18 h
[24] = test system: E. coli UBMS 90-5; assay: microbe, parasite or virus in culture; format: cell-based; settings: Escherichia coli, UBMS905, 18 h, E. coli UBMS 90-5; read-out: MIC
[25] = test system: S. aureus UBMS 88-4; assay: MIC, agar dilution; format: cell-based; settings: Staphylococcus aureus, UBMS884, 18 h
[26] = test system: E. coli BAJ9003 IMP MUT; assay: microbe, parasite or virus in culture; format: cell-based; settings: Escherichia coli, BAJ9003IMPMUT, 18 h
[27] = test system: E. coli J3272 Tet D; assay: microbe, parasite or virus in culture; format: cell-based; settings: Escherichia coli, J3272TETD, 18 h
[28] = test system: Enterococcus 12201; assay: MIC, agar dilution; format: cell-based; settings: Enterococcus, 12201, 18 h
[29] = test system: S. aureus ATCC 29213; assay: MIC, agar dilution; format: cell-based; settings: Staphylococcus aureus, ATCC29213, 18 h, S. aureus ATCC 29213
[30] = test system: S. hemolyticus AVHAH 88-3; assay: MIC, agar dilution; format: cell-based; settings: Streptococcus pyogenes, AVHAH883, 18 h
[31] = test system: S. marcescens FPOR 8733; assay: MIC, agar dilution; format: cell-based; settings: Serratia marcescens, FPOR8733, 18 h
[32] = test system: S. aureus IVES 2943; assay: MIC, agar dilution; format: cell-based; settings: Staphylococcus aureus, IVES2943, 18 h
[33] = test system: Staphylococcus aureus strain Smith (tetracycline sensitive); assay: Acute lethal infection in mice, S. aureus Smith; format: in vivo; settings: for ED50: Staphylococcus aureus, 168 h, mice, S. aureus Smith (Sens), 7 day survival, read-out: ED50
[34] = Ps. aeruginosa ATCC 27853, read-out: MIC
[35] = Enterococcus 12201, read-out: MIC
[36] = S. aureus IVES 2943, read-out: MIC
[37] = S. aureus SMITH (MP), read-out: MIC

Row | SMILES | MIC [1] [µg/mL] | MIC [2] [µg/mL] | MIC [4] [µg/mL] | MIC [5] [µg/mL] | MIC [6] [µg/mL] | MIC [9] [µg/mL] | MIC [10] [µg/mL] | MIC [11] [µg/mL] | MIC [12] [µg/mL] | MIC [14] [µg/mL] | MIC [16] [µg/mL] | MIC [18] [µg/mL] | MIC [20] [µg/mL] | MIC [21] [µg/mL] | MIC [22] [µg/mL] | MIC [23] [µg/mL] | MIC [24] [µg/mL] | MIC [25] [µg/mL] | MIC [26] [µg/mL] | MIC [27] [µg/mL] | also measured
1 | CC(C(=O)Nc1ccc2c(c1O)C(=O)C1=C(O)[C@]3(O)C(=O)C(C(N)=O)=C(O)[C@@H](N(C)C)C3CC1C2)N1CCCC1 (stereo partly shown) [P] | 1 (≈ 1.8 µM) | 1 (≈ 1.8 µM) | 2 (≈ 3.61 µM) | 0.25 (≈ 0.451 µM) | 1 (≈ 1.8 µM) | 0.5 (≈ 0.902 µM) | 0.5 (≈ 0.902 µM) | 1 (≈ 1.8 µM) | 0.5 (≈ 0.902 µM) | 0.5 (≈ 0.902 µM) | 1 (≈ 1.8 µM) | 0.5 (≈ 0.902 µM) | 2 (≈ 3.61 µM) | 1 (≈ 1.8 µM) | 4 (≈ 7.21 µM) | 0.25 (≈ 0.451 µM) | 0.5 (≈ 0.902 µM) | 0.5 (≈ 0.902 µM) | 0.25 (≈ 0.451 µM) | 0.5 (≈ 0.902 µM) | MIC [3]: 0.5 µg/mL (≈ 0.902 µM); MIC [7]: 0.25 µg/mL (≈ 0.451 µM); MIC [8]: 1 µg/mL (≈ 1.8 µM); MIC [13]: 1 µg/mL (≈ 1.8 µM); MIC [15, 34]: > 32 µg/mL; MIC ([17]; read-out: MIC): 8 µg/mL (≈ 14.4 µM); MIC [19]: 2 µg/mL (≈ 3.61 µM); MIC [28, 35]: 0.25 µg/mL (≈ 0.451 µM); MIC [29]: 0.5 µg/mL (≈ 0.902 µM); MIC [30]: 4 µg/mL (≈ 7.21 µM); MIC [31]: 16 µg/mL (≈ 28.8 µM); MIC [32, 36]: 2 µg/mL (≈ 3.61 µM)
2 | CCN(CC)CC(=O)Nc1ccc2c(c1O)C(=O)C1=C(O)[C@]3(O)C(=O)C(C(N)=O)=C(O)[C@@H](N(C)C)C3CC1C2 (stereo partly drawn) [O, [4S-(4alpha,12aalpha)]-9-[[(Diethylamino)acetyl]amino]-4-(dimethylamino)-1,4,4a,5,5a,6,11,12a-octahydro-3,10,12,12a-tetrahydroxy-1,11-dioxo-2-naphthacenecarboxamide dihydrochloride] | 0.5 | 1 | 1 | 0.25 | 1 | 0.5 | 0.5 | 1 | 0.5 | 1 | 0.5 | 0.5 | 1 | 1 | 1 | 0.5 | 1 | 0.5 | 0.12 | 0.5 | MIC [3, 37]: 0.25 µg/mL; MIC ([7]; S. aureus UBMS 90-3, read-out: MIC): 0.25 µg/mL; MIC [8]: 0.5 µg/mL; MIC ([13]; read-out: MIC): 0.5 µg/mL; MIC [15]: 32 µg/mL; MIC [17]: 2 µg/mL; MIC [28, 35]: 0.25 µg/mL; MIC [29]: 0.5 µg/mL; MIC [30]: 2 µg/mL; MIC ([31]; read-out: MIC): 8 µg/mL; MIC [32]: 1 µg/mL
3 | CCCNCC(=O)Nc1ccc2c(c1O)C(=O)C1=C(O)[C@]3(O)C(=O)C(C(N)=O)=C(O)[C@@H](N(C)C)C3CC1C2 (stereo partly drawn) [C, [4S-(4alpha,12aalpha)]-4-(Dimethylamino)-1,4,4a,5,5a,6,11,12a-octahydro-3,10,12,12a-tetrahydroxy-1,11-dioxo-9-[[(propylamino)acetyl]amino]-2-naphthacenecarboxamide dihydrochloride] | 2 | 0.25 | – | 0.12 | – | 0.5 | 0.25 | 0.5 | 0.25 | 0.06 | 0.25 | 0.25 | 0.5 | 0.25 | 4 | 0.12 | 0.25 | 0.25 | 0.06 | 0.12 | ED50 ([33]; iv, Intraveneous): 1 to 2 mg/kg; ED50 ([33]; po, Oral): > 16 mg/kg; in vivo activity (in words) ([33]; tested intravenously against the minocycline sensitive organism S. aureus Smith): very good in vivo activity; MIC [3, 37]: 0.12 µg/mL; MIC ([6]; E. coli #311 (MP), read-out: MIC): 0.5 µg/mL; MIC [7]: 0.06 µg/mL; MIC ([8]; S. aureus IVES 1983, read-out: MIC): 4 µg/mL; MIC [13]: 0.12 µg/mL; MIC [15, 34]: 16 µg/mL; MIC ([17]; read-out: MIC): 16 µg/mL; MIC [19]: 1 µg/mL; MIC [28]: 0.25 µg/mL; MIC ([29]; read-out: MIC): 0.25 µg/mL; MIC ([30]; S. hemolyticus AVHAH 88-3, read-out: MIC): 0.5 µg/mL; MIC ([31]; read-out: MIC): 4 µg/mL; MIC [32, 36]: 4 µg/mL
